# Molecular target: TBK1 (Homo sapiens (Human), UniProt Q9UHD2)
# Test: TBK1 low ATP kinase assay (in vitro assay 1)
# Assay type: biochemical
# Details: in vitro assay 1, read-out: TBK1 low ATP kinase assay IC50
# TBK1, sequence (Q9UHD2 whole entry): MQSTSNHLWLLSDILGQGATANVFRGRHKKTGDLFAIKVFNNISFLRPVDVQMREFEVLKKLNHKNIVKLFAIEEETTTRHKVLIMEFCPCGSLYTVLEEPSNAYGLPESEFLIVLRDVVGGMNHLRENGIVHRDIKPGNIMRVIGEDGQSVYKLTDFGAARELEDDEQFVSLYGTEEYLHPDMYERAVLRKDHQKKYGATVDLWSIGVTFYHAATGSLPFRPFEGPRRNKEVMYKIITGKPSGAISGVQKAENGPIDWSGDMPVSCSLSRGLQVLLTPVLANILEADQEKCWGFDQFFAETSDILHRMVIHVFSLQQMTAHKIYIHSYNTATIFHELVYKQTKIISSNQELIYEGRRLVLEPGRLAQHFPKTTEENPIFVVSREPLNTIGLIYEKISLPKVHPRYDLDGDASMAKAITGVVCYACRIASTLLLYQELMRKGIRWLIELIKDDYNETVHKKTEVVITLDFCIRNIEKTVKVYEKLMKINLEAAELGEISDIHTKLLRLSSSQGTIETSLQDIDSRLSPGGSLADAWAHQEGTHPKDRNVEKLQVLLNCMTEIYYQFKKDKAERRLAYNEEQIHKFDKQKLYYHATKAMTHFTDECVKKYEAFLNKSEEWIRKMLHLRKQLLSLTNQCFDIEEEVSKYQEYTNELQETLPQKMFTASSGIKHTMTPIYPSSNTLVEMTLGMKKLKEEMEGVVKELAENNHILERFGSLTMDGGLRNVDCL
row,SMILES,IC50
1,"COc1cnccc1-c1ccc2nc(Nc3cc(CN4CCN(C(=O)OC(C)(C)C)CC4)ccn3)[nH]c2c1 [Example 04.01, tert-butyl 4-[(2-{[6-(3-methoxypyridin-4-yl)-1H-benzimidazol-2-yl]amino}pyridin-4-yl)methyl]piperazine-1-carboxylate]",0.0285 µM
2,"COc1cnccc1-c1ccc2nc(Nc3cc(CN4CCN(C(=O)CC(F)(F)F)CC4)ccn3)[nH]c2c1 [Example 04.02, 3,3,3-trifluoro-1-{4-[(2-{[6-(3-methoxypyridin-4-yl)-1H-benzimidazol-2-yl]amino}pyridin-4-yl)methyl]piperazin-1-yl}propan-1-one]",0.0164 µM
3,"COc1cnccc1-c1ccc2nc(Nc3cc(CN4CCN(C(=O)C5CC5)CC4)ccn3)[nH]c2c1 [Example 04.03, cyclopropyl{4-[(2-{[6-(3-methoxypyridin-4-yl)-1H-benzimidazol-2-yl]amino}pyridin-4-yl)methyl]piperazin-1-yl}methanone]",0.0193 µM
4,"COc1cnccc1-c1ccc2nc(Nc3cc(CN4CCN(C(=O)C5CCC5)CC4)ccn3)[nH]c2c1 [Example 04.04, cyclobutyl{4-[(2-{[6-(3-methoxypyridin-4-yl)-1H-benzimidazol-2-yl]amino}pyridin-4-yl)methyl]piperazin-1-yl}methanone]",0.0224 µM
5,"COc1cnccc1-c1ccc2nc(Nc3cc(CN4CCN(C(=O)CC5CC5)CC4)ccn3)[nH]c2c1 [Example 04.05, 2-cyclopropyl-1-{4-[(2-{[6-(3-methoxypyridin-4-yl)-1H-benzimidazol-2-yl]amino}pyridin-4-yl)methyl]piperazin-1-yl}ethanone]",0.0253 µM
6,"COc1cnccc1-c1ccc2nc(Nc3cc(CN4CCN(C(=O)C(C)(C)C)CC4)ccn3)[nH]c2c1 [Example 04.06, 1-{4-[(2-{[6-(3-methoxypyridin-4-yl)-1H-benzimidazol-2-yl]amino}pyridin-4-yl)methyl]piperazin-1-yl}-2,2-dimethylpropan-1-one]",0.0302 µM
7,"COc1cnccc1-c1ccc2nc(Nc3cc(CN4CCN(C(=O)C5(C(F)(F)F)CC5)CC4)ccn3)[nH]c2c1 [Example 04.07, {4-[(2-{[6-(3-methoxypyridin-4-yl)-1H-benzimidazol-2-yl]amino}pyridin-4-yl)methyl]piperazin-1-yl}[1-(trifluoromethyl)cyclopropyl]methanone]",0.01 µM
8,"COc1cnccc1-c1ccc2nc(Nc3cc(CN4CCN(C(=O)C(C)(C)O)CC4)ccn3)[nH]c2c1 [Example 04.09, 2-hydroxy-1-{4-[(2-{[6-(3-methoxypyridin-4-yl)-1H-benzimidazol-2-yl]amino}pyridin-4-yl)methyl]piperazin-1-yl}-2-methylpropan-1-one]",0.0285 µM
9,"COc1cnccc1-c1ccc2nc(Nc3cc(CN4CCN(C(=O)C(C)(C)OC)CC4)ccn3)[nH]c2c1 [Example 04.10, 2-methoxy-1-{4-[(2-{[6-(3-methoxypyridin-4-yl)-1H-benzimidazol-2-yl]amino}pyridin-4-yl)methyl]piperazin-1-yl}-2-methylpropan-1-one]",0.0283 µM

# Other lines, results leading:
row,IC50,SMILES
1,0.0522 µM,"O=C(CC(F)(F)F)N1CCN(Cc2ccnc(Nc3nc4ccc(-c5ccncc5OCC(F)(F)F)cc4[nH]3)c2)CC1 [Example 05.01, 3,3,3-trifluoro-1-(4-{[2-({6-[3-(2,2,2-trifluoroethoxy)pyridin-4-yl]-1H-benzimidazol-2-yl}amino)pyridin-4-yl]methyl}piperazin-1-yl)propan-1-one]"
2,0.00431 µM,"CC(C)Oc1cnccc1-c1ccc2nc(Nc3cc(CN4CCN(C(=O)CC(F)(F)F)CC4)ccn3)[nH]c2c1 [Example 06.01, 3,3,3-trifluoro-1-(4-{[2-({6-[3-(propan-2-yloxy)pyridin-4-yl]-1H-benzimidazol-2-yl}amino)pyridin-4-yl]methyl}piperazin-1-yl)propan-1-one]"
3,0.00712 µM,"CC(C)Oc1cnccc1-c1ccc2nc(Nc3cc(CN4CCN(C(=O)C5CC5)CC4)ccn3)[nH]c2c1 [Example 06.02, cyclopropyl(4-{[2-({6-[3-(propan-2-yloxy)pyridin-4-yl]-1H-benzimidazol-2-yl}amino)pyridin-4-yl]methyl}piperazin-1-yl)methanone]"

# — patent US10894784B2, “Heteroarylbenzimidazole compounds” (BAYER PHARMA AKTIENGESELLSCHAFT, priority 2015, dated 2021)
